Test results as given in patent US20110065675A1, “AZO DYE RELATED SMALL MOLECULE MODULATORS OF PROTEIN-PROTEIN INTERACTIONS” (University of Miami, priority 2008, published 2011).

What was measured:
[1] = molecular target: T1, mouse CD40/CD154 (mCD40:mCD154) (Mus musculus, UniProt P27548); assay: Murine CD40/CD154 binding inhibition assay; conditions: for IC50: cell-free binding, read-out: Mouse CD40/CD154 IC50
T1 construct: (FLAG-tagged) mCD154 (recombinant mouse CD40L, soluble, Alexis Biochemicals); purchased R&D Systems (mCD40/Fc); Alexis Biochemicals (mCD154)
T1 sequence (P27548 112-260 limits assumed): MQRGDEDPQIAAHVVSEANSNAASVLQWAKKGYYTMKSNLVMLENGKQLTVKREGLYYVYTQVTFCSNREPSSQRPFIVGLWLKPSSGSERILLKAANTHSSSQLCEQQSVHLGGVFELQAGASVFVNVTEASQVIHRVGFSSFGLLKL
Method: Compounds of interest were also tested in a murine (mouse) model similar to the human one with murine CD40 and CD154 replacing the corresponding human proteins. This serves as additional confirmation of the in vitro inhibitory potential of these compounds, and it was considered important because mouse models are likely to be used as the first in vivo tests. […] The experimental setup used was similar to the one described above, but using mCD40 (recombinant mouse CD40/TNFRSF5/Fc Chimera, soluble, R&D Systems) and (FLAG-tagged) mCD154 (recombinant mouse CD40L, soluble, Alexis Biochemicals). This time, however, a higher concentration of CD154 ligand had to be employed to obtain adequate signals, and after a number of calibration tests, mCD40 coating at 0.3125 μg/mL with mCD154 (mCD40L) at 1.1212 μg/mL range was selected to be used to screen the inhibiting activity of various compounds.
The experiments confirmed that the murine anti-CD154 monoclonal antibody (Taconic, MR1) was active in this system at the expected concentration (˜1 nM range), the human antibody was not, and vice versa, the human mAb was active in the human system, but not in the mouse system. The mouse system provided a similar range of activity with some (up to approximately five-fold) changes in activities compared to that seen in the human system (FIG. 2) (Table 1).

[2] = molecular target: human TNF-R1/TNFα (Homo sapiens, UniProt P01375+P19438); assay: Specificity test: human TNF-R1/TNFα binding inhibition assay; conditions: for IC50: cell-free binding, read-out: Human TNFR1/TNFα IC50
Text: A main concern for the therapeutic applicability of these compounds and of small molecule PPI inhibitors in general is related to their ability to achieve some acceptable degree of selectivity/specificity for the PPI of interest. To identify compounds that show acceptable specificity for the CD40/CD154 system, their ability to inhibit the TNF-R1/TNF-α PPI was investigated since this is particularly relevant as CD154 is part of the TNF superfamily. The experimental setup used was very similar to the one described in Example 1, but using plate-coated TNF-R1 and TNF-α as ligand (with a corresponding anti-TNF-α mAb as positive control). The concentration of TNF-R1 and TNF-α used were 0.6 μg/mL and 0.02 μg/mL, respectively.

[3] = system: human CD19+ B cells; assay: Inhibition of CD154-induced human B-cell proliferation (BrdU ELISA); type: cell-based
Text: CD40 stimulation is an important proliferation signal for human B cell proliferation (Fecteau et al., “CD40 stimulation of human peripheral B lymphocytes: distinct response from naive and memory cells. J. Immunol., vol. 171, pp. 4621-4629, 2003; Wiesner et al., “Conditional immortalization of human B cells by CD40 ligation,” PLoS ONE, vol. 3, pp. e1464, 2008), and soluble CD154 (CD40 ligand) can dose-dependently induce the proliferation of human CD19^+ B cells as measured by standard proliferation .assays. […]
The detailed procedure is as follows: Frozen MPB CD19^+ B lymphocytes (approximately 10^6 cells per vial) were obtained from StemCells Technologies (Vancouver, Canada), thawed in a 37° C. water bath until no crystal piece was left, and the cell suspension was transferred to a 50 mL conical tube. […] This was repeated, the cells were counted, and the concentration of viable cells was adjusted to approximately 1×10^6 cells/mL. […] A colorimetric cell proliferation ELISA BrdU from Roche Applied Science (Indianapolis, Ind.) was used as immunoassay for quantification of cell proliferation based on the measurement of BrdU incorporation during DNA replication. […]

Chain of human TNF-R1/TNFα (P01375 77-233 limits assumed): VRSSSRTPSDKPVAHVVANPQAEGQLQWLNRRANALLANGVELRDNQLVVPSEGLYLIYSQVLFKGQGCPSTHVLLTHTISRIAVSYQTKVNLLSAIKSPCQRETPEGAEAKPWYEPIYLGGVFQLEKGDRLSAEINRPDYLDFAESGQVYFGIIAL
Chain of human TNF-R1/TNFα (P19438 30-211 limits assumed): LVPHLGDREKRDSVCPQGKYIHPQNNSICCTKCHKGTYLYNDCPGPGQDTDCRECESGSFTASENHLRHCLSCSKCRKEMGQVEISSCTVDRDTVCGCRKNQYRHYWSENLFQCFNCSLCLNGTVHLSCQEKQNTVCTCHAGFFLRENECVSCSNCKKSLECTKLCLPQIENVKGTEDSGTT

SMILES | IC50 [1] | IC50 [2] | IC50 ([3]; Homo sapiens, B-cell, CD19+ B cells, 48 h + 48 h BrdU) | Mouse CD40/CD154 log IC50 ([1]; log of IC50, cell-free binding) | Human TNFR1/TNFα log IC50 ([2]; log of IC50, cell-free binding) | Inhibition of CD154-induced B-cell proliferation [3]
Cc1ccc(C(=O)Nc2ccc(S(=O)(=O)O)c3cc(S(=O)(=O)O)cc(S(=O)(=O)O)c23)cc1NC(=O)c1cccc(NC(=O)Nc2cccc(C(=O)Nc3cc(C(=O)Nc4ccc(S(=O)(=O)O)c5cc(S(=O)(=O)O)cc(S(=O)(=O)O)c45)ccc3C)c2)c1 [Suramin, reference compound] | 4.5 µM | 486 µM | 50 to 100 µM |  |  | 
O=C([O-])C1=NN(c2ccc(S(=O)(=O)[O-])cc2)C(=O)C1N=Nc1ccc(S(=O)(=O)[O-])cc1.[Na+].[Na+].[Na+] (centres unmarked) [Tartrazine (FD&C yellow 5), Tartrazine, reference compound] | > 2000 µM | > 2000 µM |  | >−3.0 | >−3.0 | no proliferation inhibiting activity
